In US20240391923A1, “METHIONINE ADENOSYLTRANSFERASE 2A INHIBITOR FOR TREATING MTAP DELETION-TYPE CANCER” (SUZHOU GENHOUSE BIO CO., LTD., priority 2022, published 2024):
Read-outs that look alike come from different tables or passages of the source.

What was measured:
Hut-78 cell strain = experiment: Tumor cell proliferation inhibition assay (CellTiter-Glo), Hut-78; assay type: cell-based; conditions: Hut-78 cells, 5-day treatment
Method: (§1) After the HCT116-MTAP-knockout (−/−) cell strain, the HCT116-MTAP wild-type(+/+)-cell strain, the DOHH-2 cell strain, or the Hut-78 cell strain was treated with the test compound for 5 days, the ATP level was measured using a CellTiter-Glo kit of Promega to evaluate the inhibition of the test compound against the growth of the tumor cell strain.
(§2) In the present application, the HCT116-MTAP-knockout (−/−) cell strain, the HCT116-MTAP wild-type (+/+)-cell strain, the DOHH-2 cell strain, or the Hut-78 cell strain was seeded into a 96-well cell culture plate at an appropriate cell density. After 24 h, the cells were treated using the test compounds diluted 1:3 fold at the highest concentration of 10 μM for 10 gradients, and a DMSO treatment group was set up separately. The cells were cultured in a 37° C./5% CO2 incubator for 5 days.

[1] = system: SDMA in human colon cancer cell line HCT116; experiment: Cell symmetric dimethylarginine (SDMA) test, In-cell Western, HCT116 (MTAP wild-type); assay type: cell-based; conditions: Homo sapiens, HCT-116, 96 h
Summary of the method: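 HCT116 cells treated 4 days at 37° C with compound, top concentration 6 μM, 1:4 dilutions, 6 points, versus DMSO. Fixed cells stained for SDMA with DRAQ5 normalisation; 800/700 nm ratio after background subtraction fitted by non-linear regression for IC50.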

[2] = system: SDMA in HCT116-MTAP-knockout cell line; experiment: Cell symmetric dimethylarginine (SDMA) test, In-cell Western, HCT116-MTAP-knockout; assay type: cell-based; conditions: Homo sapiens, 96 h
[3] = target: MAT2A recombinant protein (Homo sapiens, UniProt P31153); experiment: MAT2A inhibitory activity (malachite green colorimetric enzyme assay); assay type: biochemical
MAT2A recombinant protein, sequence (P31153 whole entry): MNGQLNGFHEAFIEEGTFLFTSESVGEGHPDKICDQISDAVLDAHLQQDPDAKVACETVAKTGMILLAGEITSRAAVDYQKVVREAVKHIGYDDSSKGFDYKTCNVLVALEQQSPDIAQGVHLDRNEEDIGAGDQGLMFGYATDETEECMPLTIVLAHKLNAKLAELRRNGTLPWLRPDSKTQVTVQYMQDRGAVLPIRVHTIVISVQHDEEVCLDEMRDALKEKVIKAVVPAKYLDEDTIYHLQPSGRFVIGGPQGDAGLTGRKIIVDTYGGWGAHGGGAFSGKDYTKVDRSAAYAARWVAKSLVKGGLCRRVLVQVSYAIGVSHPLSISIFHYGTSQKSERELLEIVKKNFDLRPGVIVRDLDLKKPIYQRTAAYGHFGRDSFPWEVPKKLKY
Summary of the method: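 Recombinant human MAT2A with L-methionine and ATP in 50 mM HEPES pH 7.5, 50 mM KCl, 10 mM MgCl2, 10 mM DTT, 60 min at room temperature. Phosphate released detected by malachite green reagent (15 min) at 630 nm. Ten-point 1:3 series from 1000 nM final; IC50 by variable-slope non-linear regression.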

[4] = Pharmacokinetic test in mice (IV and PO); assay type: in vivo; conditions: BALB/c mice; for AUC (in words) / half-life (T½) (in words): summary of Table 7; for AUC / clearance / bioavailability / half-life / Vd: mouse, plasma; for half-life: read-out: T½ (converted); for Vd: read-out: Vz
[5] = system: HCT116-MTAP-knockout (−/−) cell strain; experiment: Tumor cell proliferation inhibition assay (CellTiter-Glo), HCT116-MTAP-knockout (-/-); assay type: cell-based; conditions: Homo sapiens, 120 h, HCT116-MTAP-knockout (−/−) cells, 5-day treatment
Method: as §1, §2

[6] = system: HCT116-MTAP wild-type (+/+)-cell strain; experiment: Tumor cell proliferation inhibition assay (CellTiter-Glo), HCT116-MTAP wild-type (+/+); assay type: cell-based; conditions: Homo sapiens, 120 h, HCT116-MTAP wild-type (+/+) cells, 5-day treatment
Method: as §1, §2

[7] = Homo sapiens, HuT78, 120 h, IC50 score, read-out: Tumor cell 5-day relative growth inhibition (Hut-78) (nM), score
[8] = Homo sapiens, HuT78, 120 h, IC50 value, read-out: Tumor cell 5-day relative growth inhibition (Hut-78)
[9] = IC50 score class, read-out: Cell 96 h SDMA Inhibition (HCT116-MTAP+/+) (score)
[10] = read-out: Cell 96 h SDMA inhibition (HCT116-MTAP+/+)
[11] = IC50 score class, read-out: Cell 96 h SDMA Inhibition (HCT116-MTAP−/−) (score)
[12] = read-out: Cell 96 h SDMA Inhibition (HCT116-MTAP−/−)
[13] = IC50 score class, read-out: MAT2A Inhibition (score)
[14] = IC50 score, read-out: Tumor cell 5-day relative growth inhibition (HCT116-MTAP−/−) (nM), score
[15] = IC50 value, read-out: Tumor cell 5-day relative growth inhibition (HCT116-MTAP−/−)
[16] = IC50 score, read-out: Tumor cell 5-day relative growth inhibition (HCT116-MTAP+/+) (nM), score
[17] = IC50 value, read-out: Tumor cell 5-day relative growth inhibition (HCT116-MTAP+/+)

Structure (SMILES) | IC50 (Hut-78 cell strain; [7]) [nM] | IC50 (Hut-78 cell strain; [8]) [nM] | IC50 [1, 9] [nM] | IC50 [1, 10] [nM] | IC50 [2, 11] [nM] | IC50 [2, 12] [nM] | IC50 [3, 13] [nM] | IC50 ([3]; read-out: MAT2A Inhibition) [nM] | other results
Cn1cc2c(n1)c(=O)n(-c1ccccc1)c1nc(C(F)(F)F)ccc21 [Compound B177] | 500 to 2000 | 866 | 200 to 1000 | 858 | 200 to 1000 | 300 | < 100 | 24.3 | –
Cc1cc(-n2c(=O)c3nn(C)cc3c3ccc(Cl)cc32)n(C)n1 [Compound B175] | ≥ 2000 | 2040 | > 3000 | 6980 | 200 to 1000 | 993 | < 100 | 80.5 | –
Cc1ncccc1-n1c(=O)c2nn(C)cc2c2ccc(C(F)(F)F)nc21 [Compound B179] | – | – | – | – | – | – | – | – | IC50 (Hut-78 cell strain; IC50 score, read-out: Tumor cell 5-day relative growth inhibition (Hut-78) (nM), score): ≥ 2000 nM; IC50 (Hut-78 cell strain; IC50 value, read-out: Tumor cell 5-day relative growth inhibition (Hut-78)): 7990 nM
Cn1cc2c(n1)c(=O)n(-c1cccc(C#N)c1)c1nc(C(F)(F)F)ccc21 [Compound B192] | < 500 | 378 | 1000 to 3000 | 2450 | 200 to 1000 | 255 | < 100 | 26.9 | –
Cn1cc2c(n1)c(=O)n(Cc1ccn[nH]1)c1nc(C(F)(F)F)ccc21 [Compound B123] | ≥ 2000 | > 2000 | – | – | – | – | < 100 | 53.7 | –
Cn1cc2c(n1)c(=O)n(-c1ccnn1C)c1cc(Cl)ccc21 [Compound B58] | < 500 | 206 | 1000 to 3000 | 1190 | 200 to 1000 | 267 | < 100 | 55.2 | –
Cc1ncccc1-n1c(=O)c2[nH]ncc2c2ccc(Cl)cc21 [Compound B103] | < 500 | 14.6 | < 200 | 53.9 | < 200 | 27.8 | < 100 | 54.8 | –
COc1cc(Cl)cc2c1c1cn(C)nc1c(=O)n2-c1cccnc1 [Compound B176] | 500 to 2000 | 985 | 1000 to 3000 | 1320 | 200 to 1000 | 263 | < 100 | 24.6 | –
Cn1cc2c(n1)c(=O)n(-c1cccnc1C1CC1)c1nc(C(F)(F)F)ccc21 [Compound B183] | < 500 | 108 | < 200 | 130 | < 200 | 47.9 | – | – | –

Second part, led by results:

IC50 (Hut-78 cell strain; [7]) [nM] | IC50 (Hut-78 cell strain; [8]) [nM] | IC50 [1, 9] [nM] | IC50 [1, 10] [nM] | IC50 [2, 11] [nM] | IC50 [2, 12] [nM] | IC50 [3, 13] [nM] | IC50 ([3]; read-out: MAT2A Inhibition) [nM] | Structure (SMILES) | other results
< 500 | 179 | 200 to 1000 | 495 | < 200 | 106 | – | – | Cn1cc2c(n1)c(=O)n(-c1cccnc1C#N)c1nc(C(F)(F)F)ccc21 [Compound B207] | –
< 500 | 9.3 | 200 to 1000 | 691 | < 200 | 25.3 | < 100 | 45.1 | Cn1cc2c(n1)c(=O)n(-c1cccnc1Cl)c1nc(C(F)(F)F)ccc21 [Compound B196] | –
– | – | – | – | < 200 | 28 | < 100 | 16.9 | [2H]C([2H])([2H])n1cc2c(n1)c(=O)n(-c1cccc3[nH]ncc13)c1nc(C(F)(F)F)ccc21 [Compound B256] | AUC (in words) [4]: relatively high; half-life (T½) (in words) [4]: relatively long; AUC ([4]; IV 2 mg/kg): 37.8 µM·h; clearance ([4]; IV 2 mg/kg): 2.28 mL/min/kg; bioavailability ([4]; IV 2 mg/kg, PO 10 mg/kg): 175%; half-life ([4]; IV 2 mg/kg): 317 min; Vd ([4]; IV 2 mg/kg): 1 L/kg; AUC ([4]; PO 10 mg/kg): 331 µM·h; half-life ([4]; PO 10 mg/kg): 517 min; IC50 [5, 14]: < 500 nM; IC50 [5, 15]: 29.5 nM; IC50 [6, 16]: 500 to 2000 nM; IC50 [6, 17]: 577 nM
< 500 | 40.4 | 200 to 1000 | 634 | < 200 | 66.6 | < 100 | 51.4 | COc1ncccc1-n1c(=O)c2nn(C)cc2c2ccc(C(F)(F)F)nc21 [Compound B203] | –
– | – | > 3000 | > 10000 | < 200 | 12 | < 100 | 15 | O=c1c2nn(C(F)F)cc2c2cc(F)c(C3CC3)nc2n1-c1cccnc1C1CC1 [Compound B361] | AUC ([4]; IV 2 mg/kg): 31.5 µM·h; clearance ([4]; IV 2 mg/kg): 2.42 mL/min/kg; bioavailability ([4]; IV 2 mg/kg, PO 10 mg/kg): 65%; half-life ([4]; IV 2 mg/kg): 384 min; Vd ([4]; IV 2 mg/kg): 1.34 L/kg; AUC ([4]; PO 10 mg/kg): 93.4 µM·h; half-life ([4]; PO 10 mg/kg): 480 min; IC50 [5, 14]: < 500 nM; IC50 [5, 15]: 128 nM; IC50 [6, 16]: ≥ 2000 nM; IC50 [6, 17]: > 10000 nM
≥ 2000 | > 2000 | 1000 to 3000 | 1290 | 1000 to 3000 | 1180 | < 100 | 93 | Cn1cc2c(n1)c(=O)n(-c1ccc3[nH]cnc3c1)c1cc(Cl)ccc21 [Compound B206] | –
500 to 2000 | 696 | 1000 to 3000 | 2110 | 200 to 1000 | 387 | < 100 | 25 | Cn1cc2c(n1)c(=O)n(-c1cccc(F)c1)c1nc(C(F)(F)F)ccc21 [Compound B193] | –
< 500 | 312 | 1000 to 3000 | 1190 | 1000 to 3000 | 1850 | < 100 | 67.4 | O=c1c2nn(C3CCOC3)cc2c2ccc(C(F)(F)F)nc2n1-c1cccnc1 (stereo not shown) [Compound B204] | –
– | – | > 3000 | 7200 | < 200 | 110 | < 100 | 11 | O=c1c2nn(C(F)F)cc2c2ccc(C(F)(F)F)nc2n1-c1cccc2[nH]ncc12 [Compound B245] | AUC (in words) [4]: relatively high; half-life (T½) (in words) [4]: relatively long; AUC ([4]; IV 2 mg/kg): 200 µM·h; clearance ([4]; IV 2 mg/kg): 0.3 mL/min/kg; bioavailability ([4]; IV 2 mg/kg, PO 10 mg/kg): 80%; half-life ([4]; IV 2 mg/kg): 648 min; Vd ([4]; IV 2 mg/kg): 0.3 L/kg; AUC ([4]; PO 10 mg/kg): 807 µM·h; half-life ([4]; PO 10 mg/kg): 1080 min; IC50 [5, 14]: < 500 nM; IC50 [5, 15]: 242 nM; IC50 [6, 16]: 500 to 2000 nM; IC50 [6, 17]: 1100 nM
– | – | 200 to 1000 | 240 | 200 to 1000 | 147 | < 100 | 9 | Cn1cc2c(n1)c(=O)n(-c1cccc3[nH]ncc13)c1nc(C(F)(F)F)c(F)cc21 [Compound B274] | IC50 [5, 14]: < 500 nM; IC50 [5, 15]: 72.5 nM; IC50 [6, 16]: ≥ 2000 nM; IC50 [6, 17]: > 10000 nM
– | – | > 3000 | > 10000 | < 200 | 98.5 | < 100 | 100 | CN1CCN(c2nccc(Cn3cc4c(n3)c(=O)n(-c3cccc5[nH]ncc35)c3cc(Cl)c(F)cc43)n2)CC1 [Compound B333] | IC50 [5, 14]: < 500 nM; IC50 [5, 15]: 284 nM; IC50 [6, 16]: 500 to 2000 nM; IC50 [6, 17]: 550 nM
– | – | – | – | < 200 | 67 | < 100 | 23.7 | Cc1c2c(nn1C(F)F)c(=O)n(-c1cccc3[nH]ncc13)c1nc(C(F)(F)F)ccc21 [Compound B254] | AUC (in words) [4]: relatively high; half-life (T½) (in words) [4]: relatively long; AUC ([4]; IV 2 mg/kg): 245 µM·h; clearance ([4]; IV 2 mg/kg): 0.317 mL/min/kg; bioavailability ([4]; IV 2 mg/kg, PO 10 mg/kg): 126%; half-life ([4]; IV 2 mg/kg): 344 min; Vd ([4]; IV 2 mg/kg): 0.2 L/kg; AUC ([4]; PO 10 mg/kg): 1470 µM·h; half-life ([4]; PO 10 mg/kg): 347 min; IC50 [5, 14]: < 500 nM; IC50 [5, 15]: 382 nM; IC50 [6, 16]: 500 to 2000 nM; IC50 [6, 17]: 1630 nM
